Here are results for twelve compounds from PubChem BioAssay AID248 (DTP/NCI, 2004).

Toxic doses and inconclusive results are not listed.

The test system of the test is L1210 leukemia ip in BDF1 mice, survival T/C. The experiment in a line: NCI In Vivo Anticancer Drug Screen. Data for tumor model L1210 Leukemia (intraperitoneal) in B6D2F1 (BDF1) mice. The settings on record: endpoint: mean survival time, higher = longer survival. The method, boiled down:
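Value reflects the ratio of survival in compound-treated mice to survival in vehicle-treated controls, with both groups carrying the same transplanted tumor.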

The mark [1] stands for this setting: dose: 50.0 mg/kg/injection, schedule: Q01DX009 (ip), vehicle: saline with Tween-80.
[2] abbreviates: dose: 100.0 mg/kg/injection, schedule: Q01DX009 (ip), vehicle: saline with Tween-80.
Where [3] appears, read: dose: 100.0 mg/kg/injection, schedule: Q04DX003 (ip), vehicle: saline with Tween-80.
Where [4] appears, read: dose: 200.0 mg/kg/injection, schedule: Q04DX003 (ip), vehicle: saline with Tween-80.
The mark [5] stands for this setting: dose: 100.0 mg/kg/injection, schedule: Q04DX003 (ip), vehicle: saline.
Where [6] appears, read: dose: 200.0 mg/kg/injection, schedule: Q04DX003 (ip), vehicle: saline.

Turning to `NC/C=N/N=C(N)N`, the T/C (dose: 15.0 mg/kg/injection, schedule: Q01DX Z (ip), vehicle: saline) was 97 % of control; the T/C (dose: 30.0 mg/kg/injection, schedule: Q01DX Z (ip), vehicle: saline) was 96 % of control; the T/C (dose: 60.0 mg/kg/injection, schedule: Q01DX Z (ip), vehicle: saline) was 94 % of control; the T/C (dose: 120.0 mg/kg/injection, schedule: Q01DX Z (ip), vehicle: saline) is 87 % of control; the T/C (dose: 120.0 mg/kg/injection, schedule: Q01DX Z (oral), vehicle: saline) is 101 % of control; the T/C (dose: 240.0 mg/kg/injection, schedule: Q01DX Z (oral), vehicle: saline) is 101 % of control. Further, the T/C is, setting by setting: (dose: 480.0 mg/kg/injection, schedule: Q01DX Z (oral), vehicle: saline) 103 % of control; (dose: 960.0 mg/kg/injection, schedule: Q01DX Z (oral), vehicle: saline) 98 % of control.

Consider `N/C(=N\[N+](=O)[O-])N(CCCCl)N=O`, for which the T/C by setting is: (dose: 3.12 mg/kg/injection, schedule: Q01DX Z (ip), vehicle: saline) 105 % of control; (dose: 6.25 mg/kg/injection, schedule: Q01DX Z (ip), vehicle: saline) 106 % of control; (dose: 12.5 mg/kg/injection, schedule: Q01DX Z (ip), vehicle: saline) 106 % of control; (dose: 18.75 mg/kg/injection, schedule: Q01DX009 (ip), vehicle: saline with Tween-80) 107 % of control; (dose: 25.0 mg/kg/injection, schedule: Q01DX Z (ip), vehicle: saline) 120 % of control; (dose: 37.5 mg/kg/injection, schedule: Q01DX009 (ip), vehicle: saline with Tween-80) 103 % of control. Further, the T/C is 119 % of control (dose: 40.0 mg/kg/injection, schedule: Q01DX Z (ip), vehicle: carboxymethylcellulose (CMC)); 108 % of control (dose: 50.0 mg/kg/injection, schedule: Q01DX001 (ip), vehicle: saline); 116 % of control (dose: 60.0 mg/kg/injection, schedule: Q01DX Z (ip), vehicle: carboxymethylcellulose (CMC)); 123 % of control (dose: 75.0 mg/kg/injection, schedule: Q01DX009 (ip), vehicle: saline with Tween-80); 111 % of control (dose: 90.0 mg/kg/injection, schedule: Q01DX Z (ip), vehicle: carboxymethylcellulose (CMC)); 97 % of control (dose: 100.0 mg/kg/injection, schedule: Q01DX001 (ip), vehicle: saline). Moreover, the T/C was 104 % of control (dose: 150.0 mg/kg/injection, schedule: Q01DX009 (ip), vehicle: saline with Tween-80) and 106 % of control (dose: 200.0 mg/kg/injection, schedule: Q01DX001 (ip), vehicle: saline).

Consider `CC(=O)NC(C)(CCOCc1ccccc1)C(=O)O` (centres undefined), for which the T/C runs as follows: (dose: 50.0 mg/kg/injection, schedule: Q01DX001 (ip), vehicle: carboxymethylcellulose (CMC)) 94 % of control; (dose: 100.0 mg/kg/injection, schedule: Q01DX001 (ip), vehicle: carboxymethylcellulose (CMC)) 100 % of control; (dose: 200.0 mg/kg/injection, schedule: Q01DX001 (ip), vehicle: carboxymethylcellulose (CMC)) 110 % of control; (dose: 400.0 mg/kg/injection, schedule: Q01DX001 (ip), vehicle: carboxymethylcellulose (CMC)) 96 % of control.

Turning to `O=C1SC(c2ccccc2)(c2ccccc2)c2cscc21`, the T/C by setting is: under setting [1], 86 % of control; under setting [2], 86 % of control.

Consider `O=NN(CCCl)C(=O)Nc1ccc(CC(=O)O)cc1`, for which the T/C was 154 % of control (dose: 8.0 mg/kg/injection, schedule: Q01DX001 (ip), vehicle: carboxymethylcellulose (CMC)); 189 % of control (dose: 12.0 mg/kg/injection, schedule: Q01DX001 (ip), vehicle: carboxymethylcellulose (CMC)); 226 % of control (dose: 18.0 mg/kg/injection, schedule: Q01DX001 (ip), vehicle: carboxymethylcellulose (CMC)); 236 % of control (dose: 26.0 mg/kg/injection, schedule: Q01DX001 (ip), vehicle: carboxymethylcellulose (CMC)).

For `CCOc1ccn(CC(=O)c2ccc(Cl)s2)c(=O)n1`, the T/C reads like this: under setting [2], 93 % of control; under setting [3], 100 % of control; (dose: 200.0 mg/kg/injection, schedule: Q01DX009 (ip), vehicle: saline with Tween-80) 90 % of control; under setting [4], 100 % of control; (dose: 400.0 mg/kg/injection, schedule: Q01DX009 (ip), vehicle: saline with Tween-80) 86 % of control; (dose: 400.0 mg/kg/injection, schedule: Q04DX003 (ip), vehicle: saline with Tween-80) 101 % of control.

As for `C=C(Br)CNC(C)=O`, the T/C is 113 % of control (dose: 12.5 mg/kg/injection, schedule: Q01DX009 (ip), vehicle: saline); 106 % of control (dose: 25.0 mg/kg/injection, schedule: Q01DX009 (ip), vehicle: saline); 98 % of control (dose: 50.0 mg/kg/injection, schedule: Q01DX009 (ip), vehicle: saline); 120 % of control (dose: 100.0 mg/kg/injection, schedule: Q01DX009 (ip), vehicle: saline); 113 % of control under setting [5]; 113 % of control under setting [6].

With `O=C(NC/C=C/Br)Nc1cnc2ccccc2c1`, the T/C (dose: 12.5 mg/kg/injection, schedule: Q01DX009 (ip), vehicle: saline with Tween-80) was 96 % of control; the T/C (dose: 25.0 mg/kg/injection, schedule: Q01DX009 (ip), vehicle: saline with Tween-80) is 101 % of control; the T/C under setting [1] is 96 % of control; the T/C under setting [3] was 89 % of control.

For `COc1ccc2c(c1)CNC1c3cc(OC)c(O)cc3CC21` (centres undefined), under setting [4], the T/C is 88 % of control.

Turning to `CN=C1N[N+]2=C(C)CCCC2S1` (centres undefined), the T/C by setting is: under setting [5], 95 % of control; under setting [6], 95 % of control.

For the compound `CN(C)/C=N/N1CCCCCC1`, the T/C under setting [5] was 98 % of control.

As to `CC(=O)c1cc(C)ccc1O`, the T/C by setting is: (dose: 100.0 mg/kg/injection, schedule: Q04DX003 (ip), vehicle: Klucel (hydroxypropylcellulose) (HPC)) 93 % of control; (dose: 200.0 mg/kg/injection, schedule: Q04DX003 (ip), vehicle: Klucel (hydroxypropylcellulose) (HPC)) 92 % of control.
